Reference: patent US9688733B2, “Method for treating spinal cord injury using HMGB1 fragment” (GENOMIX CO., LTD, priority 2012, dated 2017)
“Also recorded” adds a separate entry of the source.

Tests used:
[1] = tested on: mouse bone marrow mesenchymal stem cell line (MSC-1 cell); assay: Migration-promoting activity in chemotaxis chamber; format: cell-based; settings: MSC-1 cells; for migration-promoting activity: 100 μg/ml in lower chamber, positive control full-length mouse HMGB1 (1-215(HEK)), FIG. 1A
Procedure: The peptides listed below were custom synthesized using the solid phase method by Medical & Biological Laboratories (MBL). The peptides were synthesized based on the mouse HMGB1 sequence. Amino acid sequences from positions 1 to 169 of mouse HMGB1 and human HMGB1 are identical, i.e., shares 100% sequence homology.
the full-length mouse HMGB1 produced in HEK293 (1-215(HEK)) as a positive control were adjusted to 100 μg/ml and placed in the lower chamber of a chemotaxis chamber to assess the migration-promoting activity on mouse bone marrow mesenchymal stem cell line (MSC-1 cell; produced by Osaka University, Tamai et al., (Tamai et al., Proc Natl Acad Sci USA., 108(16): 6609-6614, 2011)). (Results)
As positive controls, centrifuged supernatant of the skin of a one-day-old mouse (one individual) incubated in PBS at 4° C. for 12 hours, and the full-length mouse HMGB1 produced in HEK293 (1-215(HEK)) were used. Cells of a bone marrow mesenchymal stem cell line (MSC-1) were placed in the upper chamber of a chemotaxis chamber, and the protein and synthetic peptides were added at a concentration of 5 μM or 10 μM to the lower chamber of the chemotaxis chamber. The migration assay was carried out by the same method as described above.

[2] = tested on: C57BL6/J mice with traumatic injury of the spinal cord; assay: Neurologic symptoms (Basso Mouse Scale score) in mice with traumatic injury of the spinal cord; format: in vivo; settings: five daily administrations
Description: (§1) Seven-week-old female C57BL6/J mice were used as test animals. After the mice were anesthetized by isoflurane inhalation, skin incision was made along the dorsal midline, and the vertebral arch of the ninth thoracic vertebra was exposed and excised. Dura mater was exposed at the same site, and the spinal cord was held epidurally for three seconds using a microneedle holder to produce a traumatic injury of the spinal cord. After generation of injury of the spinal cord, the skin was sutured. […] The assay reagent was prepared by diluting 100 μg of an HMGB1 fragment (amino acid sequence: amino acids of positions 11 to 44; synthesized peptide produced at MBL) in 200 μL of Dulbecco's PBS (D-PBS). 200 μL of D-PBS was used for the negative control. On the next day of operation, the first administration was performed through the tail vein, and this was followed by a total of five daily administrations. Neurologic symptoms were assessed using the Basso Mouse Scale (BMS) score on Days 1, 3, 7, 10, 14, 17, and 21 post operation.
Seven-week-old female C57BL6/J mice were used as test animals. After the mice were anesthetized by isoflurane inhalation, skin incision was made along the dorsal midline, and the vertebral arch of the ninth thoracic vertebra was exposed and excised. Dura mater was exposed at the same site, and the spinal cord was held epidurally for three seconds using a microneedle holder to produce a traumatic injury of the spinal cord. After production of injury of the spinal cord, the skin was sutured. […] An HMGB1 fragment (amino acid sequence: the amino acids of positions 11 to 44; synthetic peptide produced at MBL) was prepared by diluting 100 μg of the fragment in 200 μL of Dulbecco's PBS (D-PBS). The full-length HMGB1 protein was produced by expressing it in HEK293 as reported previously, and the purified HMGB1 (100 μg) was dissolved in 200 μL of D-PBS. 200 μL of D-PBS was used for the negative control. On the next day of operation, the first administration was performed through the tail vein, and this was followed by a total of five daily administrations. Neurologic symptoms were assessed using the BMS score on Days 1, 3, 7, and 14 post operation.
Seven-week-old female C57BL6/J mice were used as test animals. The mice were anesthetized by isoflurane inhalation, skin incision was made along the dorsal midline, and the vertebral arch of the ninth thoracic vertebra was exposed and excised. Dura mater was exposed at the same site, and the spinal cord was held epidurally for three seconds using a microneedle holder to produce a traumatic injury of the spinal cord. After production of injury of the spinal cord, the skin was sutured. […] HMGB1 fragments (amino acid sequences: amino acids from positions 11 to 44 and amino acids from positions 1 to 44; synthetic peptides produced at MBL) were prepared by diluting 100 μg of the fragment in 200 μL of D-PBS. 200 μL of D-PBS was used for the negative control. On the next day of operation, the first administration was performed via the tail vein, and this was followed by a total of five daily administrations. Neurologic symptoms were assessed using the BMS score on Days 1, 3, 7, 10, 14, 17, 21, and 28 post operation.

[3] = tested on: C57BL6/J mice with traumatic injury of the spinal cord; assay: HE staining of the damaged region of the spinal cord; format: in vivo, mouse; settings: Example 2, 100 μg tail vein, five daily administrations, vs negative control (PBS), FIG. 2B
Description: as §1

“synthetic peptide (1-44): peptide consisting of the amino acids at positions 1 to 44 of the HMGB1 protein (SEQ ID NO: 5) (MGKGDPKKPRGKMSSYAFFVQTCREEHKKKHPDASVNFSEFSKK; Synthesized peptide from the HMGB1 protein)” was tested, and the migration-promoting activity [1] was “activity comparable to or higher than that of the positive control”, the “improvement of neurologic symptoms (BMS score)” value ([2]; Example 4, 100 μg tail vein, Days 1-28 post operation, vs PBS, FIG. 4, listed as 1-44) was “therapeutic effects were observed; also recorded: effective in treating injury of the spinal cord” and the “improvement of neurologic symptoms (BMS score)” value ([2]; Example 4, 100 μg tail vein, Days 1-28 post operation, vs PBS, FIG. 4, listed as HMGB1 fragment consisting of the amino acids from positions 1 to 44) was “comparable therapeutic effects”.

With “synthetic peptide (17-25): synthetic peptide consisting of the amino acid sequence from positions 17 to 25 of HMGB1 (SEQ ID NO: 3) (AFFVQTCRE; Synthesized peptide from the HMGB1 protein)” the migration-stimulating activity ([1]; 5 μM or 10 μM in lower chamber, FIG. 1B) was “smallest fragment with migration-stimulating activity; also recorded: smallest fragment that has the migration-stimulating activity”.

For “synthetic peptide (11-34): synthetic peptide consisting of the amino acid sequence from positions 11 to 34 of HMGB1 (GKMSSYAFFVQTCREEHKKKHPDA; UniProt P63158 11-34, looked up, fragment)”, the migration-promoting activity [1] was “activity comparable to or higher than that of the positive control”.

For “synthetic peptide (11-25): synthetic peptide consisting of the amino acid sequence from positions 11 to 25 of HMGB1 (GKMSSYAFFVQTCRE; UniProt P63158 11-25, looked up, fragment)”, the migration-promoting activity [1] was “found to have the activity”.

In the case of “synthetic peptide (1-34): synthetic peptide consisting of the amino acid sequence from positions 1 to 34 of HMGB1 (MGKGDPKKPRGKMSSYAFFVQTCREEHKKKHPDA; UniProt P63158 1-34, looked up, fragment)”, the migration-promoting activity [1] is reported as “activity comparable to or higher than that of the positive control”.

For “synthetic peptide (11-30): synthetic peptide consisting of the amino acid sequence from positions 11 to 30 of HMGB1 (GKMSSYAFFVQTCREEHKKK; UniProt P63158 11-30, looked up, fragment)”, the migration-promoting activity [1] was “activity comparable to or higher than that of the positive control”.

In the case of “synthetic peptide (11-44): synthetic peptide consisting of the amino acid sequence from positions 11 to 44 of HMGB1 (SEQ ID NO: 4) (GKMSSYAFFVQTCREEHKKKHPDASVNFSEFSKK; Synthesized peptide from the HMGB1 protein)”, the migration-promoting activity [1] is reported as “activity comparable to or higher than that of the positive control”, the “improvement of neurologic symptoms (BMS score)” value ([2]; Example 2, 100 μg in 200 μL D-PBS, tail vein, Days 1-21 post operation, vs PBS, FIG. 2A, listed as HMGB1 fragment) is reported as “significant improvement of neurologic symptoms was observed from Day 3 post operation; also recorded: remarkable improvement of symptoms was observed on Days 3, 7, 14, and 17 post operation” and the “improvement of neurologic symptoms (BMS score)” value ([2]; Example 2, 100 μg in 200 μL D-PBS, tail vein, Days 1-21 post operation, vs PBS, FIG. 2A, listed as HMGB1 fragment (11-44)) is reported as “significant effects of improving neurologic symptoms were observed”. The “improvement of neurologic symptoms (BMS score)” value ([2]; Example 3, 100 μg tail vein, Days 1, 3, 7, 14, fragment vs full-length vs PBS, FIG. 3, listed as HMGB1 fragment (amino acids at positions 11-44)) was “most effective; also recorded: much more satisfactory improvement of the therapeutic effect”, the “improvement of neurologic symptoms (BMS score)” value ([2]; Example 4, 100 μg tail vein, Days 1-28 post operation, vs PBS, FIG. 4) was “therapeutic effects were observed; also recorded: effective in treating injury of the spinal cord” and the “improvement of neurologic symptoms (BMS score)” value ([2]; Example 4, 100 μg tail vein, Days 1-28 post operation, vs PBS, FIG. 4, listed as HMGB1 fragment consisting of the amino acids from positions 11 to 44) was “comparable therapeutic effects”. The “size of damaged region of the spinal cord (HE staining)” value ([3]; listed as HMGB1 fragment (11-44)) was “size of the area of injury of the spinal cord decreased” and the “size of damaged region of the spinal cord (HE staining)” value ([3]; listed as HMGB1 fragment (11-44 peptide)) was “reduced”.

B1: full-length HMGB1: full-length HMGB1 protein produced by expressing it in HEK293, purified; positive control / comparator (protein, UniProt P63158 1-215, looked up)
chain: MGKGDPKKPRGKMSSYAFFVQTCREEHKKKHPDASVNFSEFSKKCSERWKTMSAKEKGKFEDMAKADKARYEREMKTYIPPKGETKKKFKDPNAPKRPPSAFFLFCSEYRPKIKGEHPGLSIGDVAKKLGEMWNNTAADDKQPYEKKAAKLKEKYEKDIAAYRAKGKPDAAKKGVVKAEKSKKKKEEEDDEEDEEDEEEEEEEEDEDEEEDDDDE
modifications: full-length
notes: full-length HMGB1 protein produced by expressing it in HEK293, purified; positive control / comparator
For B1, the “improvement of neurologic symptoms (BMS score)” value ([2]; Example 3, 100 μg tail vein, Days 1, 3, 7, 14, fragment vs full-length vs PBS, FIG. 3) was “intermediate between the effect in the HMGB1 fragment (amino acids at positions 11-44)-administered group and that in the negative control group” and the “improvement of neurologic symptoms (BMS score)” value ([2]; Example 3, 100 μg tail vein, Days 1, 3, 7, 14, fragment vs full-length vs PBS, FIG. 3, listed as HMGB1 (full-length)) was “therapeutic effect was observed; also recorded: not as effective as that in the HMGB1 fragment”.
